Entries after “also recorded” stand apart in the source; their conditions may differ.
What was measured:
HL-60 cells = test: HL-60 cell binding to arrayed compound; set-up: species or system human; settings: AML cell line expressing intermediate levels of hCD33
Source text: This increase in avidity was further supported by the fact that HL-60 cells, an AML cell line expressing intermediate levels of hCD33, bound to compound 22.

hCD33 [1] = target: T1, hCD33 (Homo sapiens, UniProt P20138); test: solution-phase inhibition assay, flow cytometry: binding of fluorescently labelled hCD33 to ligand-coated beads
Protocol: Glycan microarrays may provide only qualitative measures of avidity and selectivity. Therefore, the relative affinities of these compounds were analyzed using solution-phase inhibition assays where IC50 values were determined using a flow cytometry assay. The flow cytometry assay evaluated whether the compounds were able to prevent the binding of fluorescently labelled hCD33 to ligand-coated beads, and these values were used to determine the relative inhibitory potency (rIP) for each compound compared to the native sialoside (rIP=1).
Target sequence in this assay (P20138 18-364): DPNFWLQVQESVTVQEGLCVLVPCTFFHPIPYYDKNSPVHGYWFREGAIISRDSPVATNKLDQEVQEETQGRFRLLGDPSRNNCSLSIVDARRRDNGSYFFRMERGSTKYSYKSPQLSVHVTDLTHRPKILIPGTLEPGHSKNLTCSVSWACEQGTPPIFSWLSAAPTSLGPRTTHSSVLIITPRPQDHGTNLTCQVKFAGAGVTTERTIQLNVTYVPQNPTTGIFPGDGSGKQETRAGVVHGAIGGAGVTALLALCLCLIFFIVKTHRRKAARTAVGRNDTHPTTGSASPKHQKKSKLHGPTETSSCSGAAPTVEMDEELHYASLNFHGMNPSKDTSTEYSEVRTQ

hCD33 [2] = target: T1, hCD33; test: glycan microarray binding of hCD33-Fc; set-up: made in house
Target sequence in this assay (P20138 18-259 limits assumed): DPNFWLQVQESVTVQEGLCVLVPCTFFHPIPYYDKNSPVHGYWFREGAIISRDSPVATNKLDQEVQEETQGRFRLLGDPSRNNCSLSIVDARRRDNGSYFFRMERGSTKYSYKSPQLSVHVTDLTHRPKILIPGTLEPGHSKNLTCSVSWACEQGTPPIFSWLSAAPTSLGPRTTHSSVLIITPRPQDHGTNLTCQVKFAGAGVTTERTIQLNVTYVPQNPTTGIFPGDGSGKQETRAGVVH

Siglec-8 = Siglec-8 (Homo sapiens, UniProt Q9NYZ4); settings: Bochner et al. 2005; Floyd et al. 2000; cited from earlier work
Siglec-8, sequence (Q9NYZ4 17-499): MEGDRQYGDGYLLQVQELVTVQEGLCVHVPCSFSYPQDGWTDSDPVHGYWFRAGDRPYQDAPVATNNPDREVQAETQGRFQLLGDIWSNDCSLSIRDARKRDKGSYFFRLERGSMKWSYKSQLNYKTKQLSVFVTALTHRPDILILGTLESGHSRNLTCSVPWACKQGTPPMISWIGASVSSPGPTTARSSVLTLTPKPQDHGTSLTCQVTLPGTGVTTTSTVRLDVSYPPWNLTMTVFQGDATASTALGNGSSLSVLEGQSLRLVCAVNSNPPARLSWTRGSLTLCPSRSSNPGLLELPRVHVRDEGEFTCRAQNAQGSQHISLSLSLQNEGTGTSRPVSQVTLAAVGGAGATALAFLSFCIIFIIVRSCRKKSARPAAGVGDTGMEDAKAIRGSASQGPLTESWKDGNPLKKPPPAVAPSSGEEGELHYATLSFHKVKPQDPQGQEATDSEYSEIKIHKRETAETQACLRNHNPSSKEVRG

Question: Which “binding of HL-60 cells to compound” value (HL-60 cells) does the source give for `Cc1cc(C(=O)NC[C@@H](O)[C@@H](O)C2O[C@@](OCC3O[C@@H](O[C@@H]4C(CO)O[C@@H](OCCN)C(O)[C@H]4O)C(O)[C@@H](O)[C@H]3O)(C(=O)O)C[C@@H](O)[C@H]2NC(=O)Cn2cc(C3CCCCC3)nn2)cc(C)c1O` (stereo partly shown) [Compound 22] here?
Answer: The value was “bound”.

Question: And the “increase in affinity relative to the native sialoside” value (hCD33 [1]; hCD33)?
Answer: The value was 350 fold.

Question: What about the IC50 (hCD33 [1]; prevention of binding of fluorescently labelled hCD33 to ligand-coated beads) of the same compound?
Answer: Its IC50 is 11 µM.

Question: And the rIP value (hCD33 [1]; relative inhibitory potency compared to the native sialoside (rIP=1))?
Answer: The rIP value was 351.

Question: And the “selectivity for hCD33 over hCD22 and mSn” value (hCD33 [2]; glycan microarray)?
Answer: The value was “showed increased selectivity for hCD33 over hCD22 and mSn”.

Question: And the “binding (affinity/avidity, selectivity) to hCD33 on glycan array” value (hCD33 [2]; printed at 100 μM or 3 μM, hCD33-Fc pre-complexed with R-PE anti-human IgG)?
Answer: Its value is “exhibited superior properties compared to the monosubstituted compounds; also recorded: exhibited higher avidity than both parent compounds”.

Question: Which “binding to Siglec-8” value (Siglec-8) does the source give for “Neu5Acα2-3[6-SO4]Galβ1-4[Fucα1-3]GlcNAc [6′-sulfo-sLe^X]” here?
Answer: Its value is “binds to”.

— US10994006B2, “Desensitizing mast cells by co-presentation of antigens with high affinity mast cell siglec ligands” (The Scripps Research Institute, priority 2016, dated 2021)
